Read-outs that look alike come from different tables or passages of the source.
Tests used:
putrescine oxidase [1] = target: T1, putrescine oxidase (Kocuria rosea, UniProt P40974); conditions: cited from earlier work
T1 sequence (P40974 1-478): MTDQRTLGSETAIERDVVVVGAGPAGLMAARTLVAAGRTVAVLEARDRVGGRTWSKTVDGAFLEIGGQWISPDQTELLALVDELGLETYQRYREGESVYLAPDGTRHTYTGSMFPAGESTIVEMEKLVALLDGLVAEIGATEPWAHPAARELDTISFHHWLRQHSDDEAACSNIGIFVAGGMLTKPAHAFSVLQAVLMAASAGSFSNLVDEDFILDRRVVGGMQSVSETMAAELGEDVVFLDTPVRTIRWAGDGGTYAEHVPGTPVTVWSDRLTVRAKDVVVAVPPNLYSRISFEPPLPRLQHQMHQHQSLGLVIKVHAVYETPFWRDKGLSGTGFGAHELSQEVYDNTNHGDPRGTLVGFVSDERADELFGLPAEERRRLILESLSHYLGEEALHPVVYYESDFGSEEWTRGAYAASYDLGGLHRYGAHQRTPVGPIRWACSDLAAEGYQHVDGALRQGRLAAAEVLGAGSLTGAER

polyamine oxidase PC-3 [2] = test: Enzymatic oxidative decomposition by polyamine oxidase PC-3, colorimetric determination of hydrogen peroxide; assay type: biochemical; conditions: for Activity of the enzyme on the substrate: N8-acetylspermidine only if the concentration of the enzyme is relatively high; for H2O2 formed: substrates marked * only with a relatively high concentration of the enzyme, -- = no activity; for hydrogen peroxide produced per mole of the substrate / time to completion of the reaction: pH 5.5, 35° C., about 0.05 unit of enzyme (about 15 units for N8-acetylspermidine)
[3] = tested on: polyamine oxidase PC-3 followed by acetylputrescine oxidase; test: Two-step reaction: polyamine oxidase PC-3, then acetylputrescine oxidase; assay type: biochemical
polyamine oxidase PC-3 [4] = conditions: cited from earlier work
putrescine oxidase [5] = target: T1, putrescine oxidase; test: Enzymatic oxidative decomposition by putrescine oxidase, colorimetric determination of hydrogen peroxide; assay type: biochemical; conditions: for H2O2 formed: Table 1, -- = no activity; for hydrogen peroxide produced per mole of the substrate / time to completion of the reaction: borate buffer pH 8.5, 35° C., about 0.5 unit of enzyme
polyamine oxidase AT-1 [6] = test: Enzymatic oxidative decomposition by polyamine oxidase AT-1, colorimetric determination of hydrogen peroxide; assay type: biochemical; conditions: for putrescine formed / H2O2 formed: Table 1, substrates marked * only with a relatively high concentration of the enzyme; for H2O2 formed: -- = no activity; for hydrogen peroxide produced per mole of the substrate / time to completion of the reaction: pH 6.5, 35° C., 0.05 unit of enzyme (2 units for acetylspermine); for Activity of the enzyme on the substrate: spermine and spermidine at low enzyme concentration, acetylspermine and N1-acetylspermidine when the concentration of the enzyme is increased
[7] = tested on: polyamine oxidase AT-1 followed by putrescine oxidase; test: Two-step reaction: polyamine oxidase AT-1, then putrescine oxidase; assay type: biochemical; conditions: for absorbance after the first step / increment of absorbance in the second step / absorbance after the second step: 505 nm; for absorbance after the first step: AT-1 0.05 unit (about 5 units for acetylspermine and N1-acetylspermidine), 0.5 ml of 400 μM substrate in 2.5 ml; for increment of absorbance in the second step: after addition of putrescine oxidase; for absorbance after the second step: putrescine oxidase 0.5 unit, pH 8-9, 5 minutes; for hydrogen peroxide produced per mole of the substrate in the first step: polyamine oxidase AT-1; for hydrogen peroxide produced in the second step: putrescine oxidase acting on the putrescine produced in the first step
[8] = tested on: polyamine oxidase PC-3 followed by putrescine oxidase; test: Two-step reaction: polyamine oxidase PC-3, then putrescine oxidase; assay type: biochemical; conditions: for absorbance after the first step / increment of absorbance in the second step / absorbance after the second step: 505 nm; for absorbance after the first step: PC-3 about 0.05 unit, acetate buffer pH 5.0; for increment of absorbance in the second step: after addition of putrescine oxidase; for absorbance after the second step: putrescine oxidase about 0.5 unit, pH 8-8.5, 5 minutes; for hydrogen peroxide produced per mole of the substrate in the first step: polyamine oxidase PC-3; for hydrogen peroxide produced per mole of the substrate in the second step: putrescine oxidase
polyamine oxidase AT-1 [9] = conditions: cited from earlier work

NCCCN [1,3-diaminopropane]
Substrate specificity (putrescine oxidase [1]): inactive

CC(=O)NCCCCNCCCN [N^8 -acetylspermidine]
Activity of the enzyme on the substrate (polyamine oxidase PC-3 [2]): active | acetylputrescine formed (polyamine oxidase PC-3 [2]; Table 1, relatively high concentration of the enzyme): 1 moles per mole of the substrat | H2O2 formed (polyamine oxidase PC-3 [2]; Table 1): 1 moles per mole of the substrat | hydrogen peroxide produced per mole of the substrate (polyamine oxidase PC-3 [2]): 1 mol | time to completion of the reaction (polyamine oxidase PC-3 [2]): ≤ 10 min | absorbance after the first step ([3]; 505 nm, PC-3 about 15 units, pH 5.5, 0.5 ml of 400 μM substrate in 2.5 ml): 0.500 | absorbance after the second step ([3]; 505 nm, acetylputrescine oxidase about 0.5 unit, pH about 7.5, about 10 minutes): 1.000 | increment of absorbance in the second step ([3]; 505 nm, after addition of acetylputrescine oxidase): 0.500 | hydrogen peroxide produced per mole of the substrate in the second step ([3]; acetylputrescine oxidase): 1 mol | hydrogen peroxide produced per mole of the substrate in the first step ([3]; polyamine oxidase PC-3): 1 mol

O=C(O)c1cc[c]([Hg][Cl])cc1 [PCMB]
Inhibitors (polyamine oxidase PC-3 [4]; spermine as the substrate): inhibition

O=C(O)CI [monoiodoacetic acid]
Inhibitors (polyamine oxidase PC-3 [4]): inhibition

NCCCCN [putrescine]
H2O2 formed (putrescine oxidase [5]): 1 moles per mole of the substrat | hydrogen peroxide produced per mole of the substrate (putrescine oxidase [5]): 1 mol | time to completion of the reaction (putrescine oxidase [5]): ≤ 5 min | Enzymatic activity: products per mole of the substrate (putrescine oxidase [1]): each 1 mole of 4-aminobutanal, hydrogen peroxide and ammonia | Substrate specificity (putrescine oxidase [1]): active

NCCCCNCCCN [spermidine]
putrescine formed (polyamine oxidase AT-1 [6]): 1 moles per mole of the substrat | H2O2 formed (polyamine oxidase AT-1 [6]): 1 moles per mole of the substrat | hydrogen peroxide produced per mole of the substrate (polyamine oxidase AT-1 [6]): 1 mol | time to completion of the reaction (polyamine oxidase AT-1 [6]): ≤ 5 min | Activity of the enzyme on the substrate (polyamine oxidase AT-1 [6]): active | Activity of the enzyme on the substrate (polyamine oxidase PC-3 [2]): active | putrescine formed (polyamine oxidase PC-3 [2]; Table 1): 1 moles per mole of the substrat | H2O2 formed (polyamine oxidase PC-3 [2]; Table 1): 1 moles per mole of the substrat | hydrogen peroxide produced per mole of the substrate (polyamine oxidase PC-3 [2]): 1 mol | time to completion of the reaction (polyamine oxidase PC-3 [2]): ≤ 10 min | H2O2 formed (putrescine oxidase [5]): 1 moles per mole of the substrat | hydrogen peroxide produced per mole of the substrate (putrescine oxidase [5]): 1 mol | time to completion of the reaction (putrescine oxidase [5]): ≤ 10 min | absorbance after the first step [7]: 0.50 | increment of absorbance in the second step [7]: 0.50 | absorbance after the second step [7]: 1.00 | hydrogen peroxide produced per mole of the substrate in the first step [7]: 1 mol | hydrogen peroxide produced in the second step [7]: 1 mol | absorbance after the first step [8]: 0.50 | increment of absorbance in the second step [8]: 0.50 | absorbance after the second step [8]: 1.00 | hydrogen peroxide produced per mole of the substrate in the first step [8]: 1 mol | hydrogen peroxide produced per mole of the substrate in the second step [8]: 1 mol | Substrate specificity (polyamine oxidase AT-1 [9]; oxidation with formation of hydrogen peroxide): active | Enzymatic activity: products per mole of the substrate (polyamine oxidase AT-1 [9]; polyamine oxidase AT-1): each 1 mole of putrescine, 3-aminopropanal and hydrogen peroxide | Enzymatic activity: products per mole of the substrate (polyamine oxidase PC-3 [4]; polyamine oxidase PC-3): each 1 mole of putrescine, 3-aminopropanaland hydrogen peroxide | Substrate specificity (polyamine oxidase PC-3 [4]; polyamine oxidase PC-3): active | Enzymatic activity: products per mole of the substrate (putrescine oxidase [1]): each 1 mole of 1,3-diaminopropane, 4-aminobutanal and hydrogen peroxide | Substrate specificity (putrescine oxidase [1]): active

NCCCNCCCCNCCCN [spermine]
absorbance at completion of the reaction (polyamine oxidase AT-1 [6]; 505 nm, 0.5 ml of 400 μM substrate in 2.5 ml, pH 6.5, 35° C., 0.05 unit of enzyme): 1.00 | putrescine formed (polyamine oxidase AT-1 [6]): 1 moles per mole of the substrat | H2O2 formed (polyamine oxidase AT-1 [6]): 2 moles per mole of the substrat | hydrogen peroxide produced per mole of the substrate (polyamine oxidase AT-1 [6]): 2 mol | time to completion of the reaction (polyamine oxidase AT-1 [6]): ≤ 5 min | Activity of the enzyme on the substrate (polyamine oxidase AT-1 [6]): active | Activity of the enzyme on the substrate (polyamine oxidase PC-3 [2]): active | putrescine formed (polyamine oxidase PC-3 [2]; Table 1): 1 moles per mole of the substrat | H2O2 formed (polyamine oxidase PC-3 [2]; Table 1): 2 moles per mole of the substrat | hydrogen peroxide produced per mole of the substrate (polyamine oxidase PC-3 [2]): 2 mol | time to completion of the reaction (polyamine oxidase PC-3 [2]): ≤ 5 min | absorbance after the first step [7]: 1.00 | increment of absorbance in the second step [7]: 0.50 | absorbance after the second step [7]: 1.50 | hydrogen peroxide produced per mole of the substrate in the first step [7]: 2 mol | hydrogen peroxide produced in the second step [7]: 1 mol | absorbance after the first step [8]: 1.00 | increment of absorbance in the second step [8]: 0.50 | absorbance after the second step [8]: 1.50 | hydrogen peroxide produced per mole of the substrate in the first step [8]: 2 mol | hydrogen peroxide produced per mole of the substrate in the second step [8]: 1 mol | Enzymatic activity: products per mole of the substrate (polyamine oxidase AT-1 [9]): 1 mole of putrescine and each 2 moles of 3-aminopropanal and hydrogen peroxide | Substrate specificity (polyamine oxidase AT-1 [9]): active | Enzymatic activity: products per mole of the substrate (polyamine oxidase PC-3 [4]): 1 mole of putrescine and each 2 moles of 3-aminopropanal and hydrogen peroxide | Substrate specificity (polyamine oxidase PC-3 [4]): active | Substrate specificity (putrescine oxidase [1]): inactive

silver
Inhibitors (polyamine oxidase AT-1 [9]; polyamine oxidase AT-1): strong inhibition | Inhibitors (polyamine oxidase PC-3 [4]; spermidine as the substrate): inhibition | Inhibitors (polyamine oxidase PC-3 [4]; spermine as the substrate): inhibition

— US4550078A, “Method for the quantitative determination of individual polyamine components in a mixture” (Amano Seiyaku Kabushiki Kaisha, priority 1982, dated 1985)
